Measured values: ChEMBL document CHEMBL3400047, “Synthesis and binding properties of new long-chain 4-substituted piperazine derivatives as 5-HT₁A and 5-HT₇ receptor ligands” (Bioorg Med Chem Lett, 2015)
pKi: −log10 of the molar value.

Key:
[1] = molecular target: T1, 5-hydroxytryptamine receptor 1A (Homo sapiens, UniProt P08908); assay: Displacement of [3H]-5-HT from human 5-HT1A receptor expressed in CHOK1 cells after 30 mins by liquid scintillation counting analysis; assay type: cell-based, CHO-K1
T1 sequence (P08908 whole entry): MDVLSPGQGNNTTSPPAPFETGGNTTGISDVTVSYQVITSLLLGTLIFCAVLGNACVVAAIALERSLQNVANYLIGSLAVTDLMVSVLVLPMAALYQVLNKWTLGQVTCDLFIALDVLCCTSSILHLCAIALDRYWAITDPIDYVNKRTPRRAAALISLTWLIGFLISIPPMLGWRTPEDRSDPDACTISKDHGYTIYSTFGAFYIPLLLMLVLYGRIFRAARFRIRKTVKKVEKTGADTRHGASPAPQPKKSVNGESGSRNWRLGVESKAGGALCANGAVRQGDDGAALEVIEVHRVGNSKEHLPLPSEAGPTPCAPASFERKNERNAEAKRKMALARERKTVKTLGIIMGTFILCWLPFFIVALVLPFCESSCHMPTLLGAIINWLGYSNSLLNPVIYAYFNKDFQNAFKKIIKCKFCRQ

[2] = molecular target: T2, 5-hydroxytryptamine receptor 7 (Homo sapiens, UniProt P34969); assay: Displacement of [3H]-8-OH-DPAT from human 5-HT7 receptor expressed in CHOK1 cells after 30 mins by liquid scintillation counting analysis; assay type: cell-based, CHO-K1
T2 sequence (P34969 whole entry): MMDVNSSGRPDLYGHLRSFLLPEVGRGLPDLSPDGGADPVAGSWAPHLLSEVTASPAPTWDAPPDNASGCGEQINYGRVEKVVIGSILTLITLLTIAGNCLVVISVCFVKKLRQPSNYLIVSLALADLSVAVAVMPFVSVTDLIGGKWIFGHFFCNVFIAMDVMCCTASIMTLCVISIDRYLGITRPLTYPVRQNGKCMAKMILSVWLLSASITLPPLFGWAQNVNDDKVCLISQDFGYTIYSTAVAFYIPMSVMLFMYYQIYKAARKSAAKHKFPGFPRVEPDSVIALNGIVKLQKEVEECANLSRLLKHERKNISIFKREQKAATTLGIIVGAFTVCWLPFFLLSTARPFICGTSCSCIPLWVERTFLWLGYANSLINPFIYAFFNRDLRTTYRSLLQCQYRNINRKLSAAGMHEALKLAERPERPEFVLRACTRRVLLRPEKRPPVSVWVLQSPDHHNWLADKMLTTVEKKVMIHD

[3] = molecular target: 5-hydroxytryptamine receptor 1B (Homo sapiens) (UniProt P28222); assay: Antagonist activity at human […] receptor expressed in HEK293 cells assessed as inhibition of 5-CT-induced cAMP production at 1 uM after 30 mins by TR-FRET assay; assay type: functional, cell-based
Sequence of 5-hydroxytryptamine receptor 1B (Homo sapiens) (P28222 whole entry): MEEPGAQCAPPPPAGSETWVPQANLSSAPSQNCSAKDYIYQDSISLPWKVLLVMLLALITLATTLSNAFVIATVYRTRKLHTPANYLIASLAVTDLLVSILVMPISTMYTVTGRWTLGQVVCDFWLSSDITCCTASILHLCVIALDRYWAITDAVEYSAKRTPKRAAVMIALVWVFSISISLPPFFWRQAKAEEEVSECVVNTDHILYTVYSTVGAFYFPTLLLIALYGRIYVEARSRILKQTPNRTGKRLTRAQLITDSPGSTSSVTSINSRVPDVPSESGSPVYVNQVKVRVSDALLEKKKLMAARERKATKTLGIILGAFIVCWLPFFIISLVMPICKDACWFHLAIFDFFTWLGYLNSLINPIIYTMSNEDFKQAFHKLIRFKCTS

[4] = molecular target: T2, 5-hydroxytryptamine receptor 7; assay: Displacement of [3H]-8-OH-DPAT from human 5-HT7 receptor expressed in CHOK1 cells at 10^-5 M after 30 mins by liquid scintillation counting analysis; assay type: cell-based; conditions: CHO-K1
[5] = species: Homo sapiens; assay: Selectivity ratio of Ki for human 5-HT1A receptor to Ki for human 5-HT7 receptor
[6] = species: Homo sapiens; assay: Selectivity ratio of Ki for human 5-HT7 receptor to Ki for human 5-HT1A receptor
[7] = molecular target: T3, 5-hydroxytryptamine receptor 1A (Rattus norvegicus, UniProt P19327); assay: Binding affinity to rat hippocampus 5-HT1A receptor
T3 sequence (P19327 whole entry): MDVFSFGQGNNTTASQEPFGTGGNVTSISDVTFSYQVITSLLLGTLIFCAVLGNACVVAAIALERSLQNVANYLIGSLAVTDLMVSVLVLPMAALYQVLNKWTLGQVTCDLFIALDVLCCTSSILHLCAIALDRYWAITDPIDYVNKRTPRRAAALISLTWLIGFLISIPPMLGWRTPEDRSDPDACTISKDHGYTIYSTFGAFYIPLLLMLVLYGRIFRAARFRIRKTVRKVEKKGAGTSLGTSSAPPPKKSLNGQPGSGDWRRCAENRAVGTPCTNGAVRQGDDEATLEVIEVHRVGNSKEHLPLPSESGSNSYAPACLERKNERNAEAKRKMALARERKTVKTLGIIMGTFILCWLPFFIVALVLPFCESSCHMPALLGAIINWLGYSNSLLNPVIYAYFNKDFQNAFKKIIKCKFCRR

Row | pKi [1] | pKi [2] | Compound | also measured
1 | 7.29 | 7.89 | O=c1c2ccccc2ncn1CCCCCN1CCN(c2ccc(Cl)cc2)CC1 | 
2 | 6.94 | 7.00 | O=c1[nH]c(CCCCCN2CCN(c3ccc(Cl)cc3)CC2)nc2ccccc12 | 
3 | 7.36 | 6.64 | O=c1[nH]c(CCCCCN2CCN(c3ccccc3)CC2)nc2ccccc12 | 
4 | 7.40 | 6.77 | NC(=O)c1ccccc1NC(=O)CCCCN1CCN(c2cccc(Cl)c2)CC1 | 
5 | 8.13 | 7.92 | O=c1[nH]c(CCCCCN2CCN(c3cccc(Cl)c3)CC2)nc2ccccc12 | 
6 | 6.68 | 5.78 | Cc1sc2ncn(CCCCCN3CCN(Cc4ccccc4)CC3)c(=O)c2c1C | 
7 | 8.98 | 8.16 | CCOc1ccccc1N1CCN(CCCCCn2cnc3ccccc3c2=O)CC1 | inhibition [3]: 42%
8 |  |  | Cc1sc2nc(CCCCN3CCC(Cc4ccccc4)CC3)[nH]c(=O)c2c1C | inhibition [4]: < 50%
9 | 7.44 | 6.84 | O=c1[nH]c(CCCCN2CCN(c3ccccc3)CC2)nc2ccccc12 | 
10 | 7.54 | 6.51 | O=c1c2ccccc2ncn1CCCCCN1CCN(c2ccccc2)CC1 | 
11 |  |  | CC1CCN(CC[C@H]2CCCN2S(=O)(=O)c2cccc(O)c2)CC1 | inhibition [3]: 90%
12 | 7.82 | 7.52 | Cc1sc2nc(CCCCCN3CCN(c4ccccc4)CC3)[nH]c(=O)c2c1C | 
13 | 6.94 | 7.16 | Cc1sc2nc(CCCCCN3CCN(c4cccc(Cl)c4)CC3)[nH]c(=O)c2c1C | Ratio Ki [5]: 2
14 | 7.43 | 6.45 | Cc1sc2nc(CCCCN3CCN(c4ccccc4)CC3)[nH]c(=O)c2c1C | Ratio Ki [6]: 10
15 | 7.79 | 6.84 | Cc1sc2ncn(CCCCCN3CCN(c4ccccc4)CC3)c(=O)c2c1C | 
16 | 7.27 | 5.83 | Cc1sc2nc(CCCCCN3CCN(c4ccc(Cl)cc4)CC3)[nH]c(=O)c2c1C | 
17 | 6.57 | 5.97 | O=c1c2ccccc2ncn1CCCCCN1CCN(Cc2ccccc2)CC1 | 
18 | 7.12 | 5.95 | O=c1[nH]c(CCCCN2CCN(c3ccc(Cl)cc3)CC2)nc2ccccc12 | 
19 | 6.44 | 6.83 | Cc1sc2nc(CCCCCN3CCN(Cc4ccccc4)CC3)[nH]c(=O)c2c1C | 
20 | 8.53 | 7.67 | O=c1[nH]c(CCCCN2CCN(c3cccc(Cl)c3)CC2)nc2ccccc12 | 
21 | 6.83 | 6.73 | Cc1sc2nc(CCCCCN3CCC(Cc4ccccc4)CC3)[nH]c(=O)c2c1C | 
22 | 8.20 | 7.45 | O=c1c2ccccc2ncn1CCCCCN1CCN(c2cccc(Cl)c2)CC1 | 
23 | 8.28 | 6.30 | O=c1c2ccccc2ncn1CCCCN1CCN(c2cccc(Cl)c2)CC1 | pKi [7]: 7.30
24 | 7.58 | 6.67 | Cc1sc2ncn(CCCCCN3CCN(c4ccc(Cl)cc4)CC3)c(=O)c2c1C | 
25 | 8.49 | 7.05 | Cc1sc2ncn(CCCCCN3CCN(c4cccc(Cl)c4)CC3)c(=O)c2c1C | Ratio Ki [6]: 27
26 | 8.99 | 8.52 | CCOc1ccccc1N1CCN(CCCCCn2cnc3sc(C)c(C)c3c2=O)CC1 | inhibition [3]: 38%
27 |  |  | Cc1sc2nc(CCCCN3CCN(Cc4ccccc4)CC3)[nH]c(=O)c2c1C | inhibition [4]: < 50%
